Here are results for 24 compounds from patent publication US20260334439A1, “BCAT2 INHIBITORS” (Agios Pharmaceuticals, Inc., priority 2023, published 2026).

A word on the IC50: it is the midpoint of a concentration-inhibition curve. Read a low IC50 as greater potency in that assay.

The experiment concerns the target T1, BCAT2 (Homo sapiens, UniProt O15382).
T1 sequence (O15382 28-392): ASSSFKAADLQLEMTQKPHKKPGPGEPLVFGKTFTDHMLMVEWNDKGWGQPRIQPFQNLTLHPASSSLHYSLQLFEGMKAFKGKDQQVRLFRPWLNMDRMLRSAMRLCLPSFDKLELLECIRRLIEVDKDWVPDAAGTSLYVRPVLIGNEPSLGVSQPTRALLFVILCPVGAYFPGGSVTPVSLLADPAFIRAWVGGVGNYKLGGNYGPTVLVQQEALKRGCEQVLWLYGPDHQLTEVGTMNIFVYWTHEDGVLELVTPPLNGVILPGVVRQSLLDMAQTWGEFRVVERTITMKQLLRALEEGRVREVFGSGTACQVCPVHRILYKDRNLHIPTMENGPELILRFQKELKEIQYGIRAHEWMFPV
The experiment is described as follows: BCAT2 in vitro enzyme inhibition assay (hBCAT2, glutamate dehydrogenase/diaphorase/resazurin coupled fluorescence read). Type of experiment: biochemical. The following applies: hBCAT2, 1 h preincubation at 25° C., one hour reaction; average where tested multiple times. The protocol:
• 2×Buffer: 200 mM Tris pH 8.0, 300 mM NaCl, 0.1% BSA • 1.67×hBCAT2 Enzyme Mix: 0.33 μg/mL hBCAT2, 1× Buffer • 2.5×Substrate Mix: 460 µM L-leucine, 420 µM α-KetoGlutarate, 10 U/mL glutamate dehydrogenase, 10 mM NAD, […] diaphorase, […] Resazurin
BCAT2 enzyme stock solution was diluted to prepare a 1.67×hBCAT2 Enzyme Mix. 1 μL of test compound was first added to the reaction wells followed by 30 μL of 1.67×hBCAT2 Enzyme Mix and incubated at room temperature (25° C.) for one hour. Meanwhile the Substrate Mix was prepared. The reaction was initiated by the addition of 20 μL of the 2.5×Substrate Mix, bringing the final reaction mix of all components to 1×. Reactions were quenched after one hour by the addition of 25 μL of 6% SDS and reaction progress was measured via fluorescence read (Ex 540/Em 590).
Test compounds were prepared at 50×final concentration in DMSO, 1 to 3 dilutions were made for 10 points. The compounds were added to the assay as a 1 to 50 dilution (1 μL in 50 μL) to yield a top assay final concentration of 100 μM, decreasing 3-fold for 10 points. Each compound dilution series test also included an assay max (1 μL DMSO Added in lieu of compound, Full Reaction Components Included) and Min (1 μL DMSO Added in lieu of compound, 30 μl of 1.67×hBCAT2 Enzyme Mix replated by 30 μL of 1×Buffer). All tests were performed in technical duplicate.
Where a compound was tested multiple times, the average value of the tests is reported.

For the compound `N#Cc1ccccc1-c1nc2cnc(-c3nc(C(F)(F)F)co3)cc2n1[C@@H]1CCC[C@H](NC(=O)c2cc(F)ccc2F)C1` [Example 101, N-((1S,3R)-3-(2-(2-cyanophenyl)-6-(4-(trifluoromethyl)oxazol-2-yl)-1H-imidazo[4,5-c]pyridin-1-yl)cyclohexyl)-2,5-difluorobenzamide], the IC50 was less than 100 nM.
To `CN1C[C@@H](NC(=O)c2cc(Cl)ccn2)C[C@@H](n2c(-c3ccccc3OC(F)F)nc3cnc(-c4nc[nH]n4)cc32)C1` [compound 142] belongs 100 to 500 nM.
`CCN1C[C@H](NC(=O)c2cc(F)ccn2)C[C@H](n2c(-c3ccccc3F)nc3cnc(-c4nc[nH]n4)cc32)C1` [Example 148, N-((3R,5S)-1-ethyl-5-(2-(2-fluorophenyl)-6-(1H-1,2,4-triazol-3-yl)-1H-imidazo[4,5-c]pyridin-1-yl)piperidin-3-yl)-4-fluoropicolinamide] yielded an IC50 of less than 100 nM.
To `CN1C[C@@H](N2Cc3ccc(F)cc3C2=O)C[C@@H](n2c(-c3ccccc3OCCO)nc3ccc(-c4ncccn4)cc32)C1` [Example 244, 6-fluoro-2-((3S,5R)-5-(2-(2-(2-hydroxyethoxy)phenyl)-6-(pyr-imidin-2-yl)-1H-benzo[d]imid-azol-1-yl)-1-methylpiperidin-3-yl)isoindolin-1-one] belongs 500 to 1000 nM; to `CC(C)Cc1nc2cnc(-c3nc[nH]n3)cc2n1[C@@H]1CCC[C@H](NC(=O)c2cc(F)ccc2F)[C@H]1O` [Example 121, 2,5-difluoro-N-((1S,2R,3R)-2-hydroxy-3-(2-isobutyl-6-(1H-1,2,4-triazol-3-yl)-1H-imidazo[4,5-c]pyridin-1-yl)cyclohexyl)benzamide], 100 to 500 nM; to `CC(CCO)Cc1nc2cnc(-c3nc[nH]n3)cc2n1[C@@H]1CCC[C@H](NC(=O)c2cc(Cl)ccn2)C1` (stereo partly drawn) [Example 95, 4-chloro-N-((1S,3R)-3-(2-(4-hydroxy-2-methylbutyl)-6-(1H-1,2,4-triazol-3-yl)-1H-imidazo[4,5-c]pyridin-1-yl)cyclohexyl)picolinamide], greater than 1000 nM.
`NC(=O)c1ccccc1-c1nc2cnc(-c3nc[nH]n3)cc2n1[C@@H]1CCC[C@H](N2COc3ccc(Cl)cc3C2=O)C1` [Example 207, 2-(1-((1R,3S)-3-(6-chloro-4-oxo-2H-benzo[e][1,3]oxazin-3(4H)-yl)cyclohexyl)-6-(1H-1,2,4-triazol-3-yl)-1H-imidazo[4,5-c]pyridin-2-yl)benzamide] returned an IC50 of less than 100 nM.
Turning to `COc1ccc(Cl)cc1C(=O)N[C@H]1C[C@@H](n2c(-c3ncccc3F)nc3cnc(-c4nc[nH]n4)cc32)CN(C)C1` [Example 138, 5-chloro-N-((3S,5R)-5-(2-(3-fluoropyridin-2-yl)-6-(1H-1,2,4-triazol-3-yl)-1H-imidazo[4,5-c]pyridin-1-yl)-1-methylpiperidin-3-yl)-2-methoxybenzamide], the half-maximal inhibitory concentration (IC50) was greater than 1000 nM.
With `N#Cc1ccccc1-c1nc2cnc(-c3nc[nH]n3)cc2n1[C@@H]1CCC[C@H](N2COc3ccc(F)cc3C2=O)C1` [Example 210, 2-(1-((1R,3S)-3-(6-fluoro-4-oxo-2H-benzo[e][1,3]oxazin-3(4H)-yl)cyclohexyl)-6-(1H-1,2,4-triazol-3-yl)-1H-imidazo[4,5-c]pyridin-2-yl)benzonitrile] the figure was less than 100 nM; with `O=C(N[C@H]1CCC[C@@H](n2c(-c3ncccc3OC(F)F)nc3cnc(-c4ncn[nH]4)cc32)C1)c1cc(O)ccc1Cl` [compound 97], less than 100 nM; with `COc1ccc(C(F)(F)F)cc1C(=O)N[C@H]1CCC[C@@H](n2c(-c3ccccc3F)nc3cnc(-c4nc[nH]n4)cc32)C1` [Example 9, N-((1S,3R)-3-(2-(2-fluorophenyl)-6-(1H-1,2,4-triazol-3-yl)-1H-imidazo[4,5-c]pyridin-1-yl)cyclohexyl)-2-methoxy-5-(trifluoromethyl)benzamide], less than 100 nM.
As to `COc1ccc(Cl)cc1C(=O)N[C@@H]1C[C@@H](OC)C[C@H](n2c(-c3ccccc3F)nc3cnc(-c4nc[nH]n4)cc32)C1` [Example 107, 5-chloro-N-((1S,3R,5R)-3-(2-(2-fluorophenyl)-6-(1H-1,2,4-triazol-3-yl)-1H-imidazo[4,5-c]pyridin-1-yl)-5-methoxycyclohexyl)-2-methoxybenzamide], the IC50 was greater than 1000 nM.
To `CN1C[C@@H](NC(=O)c2cc(F)ccn2)C[C@@H](n2c(-c3ccccc3OCCO)nc3ccc(-c4ncccn4)cc32)C1` [Example 237, 4-fluoro-N-((3S,5R)-5-(2-(2-(2-hydroxyethoxy)phenyl)-6-(pyr-imidin-2-yl)-1H-benzo[d]imid-azol-1-yl)-1-methylpiperidin-3-yl)picolinamide] belongs greater than 1000 nM.
To `COc1ccnc(C(=O)N[C@H]2CCC[C@@H](n3c(-c4ccccc4F)nc4cnc(-c5nc[nH]n5)cc43)C2)c1` [Example 60, N-((1S,3R)-3-(2-(2-fluorophenyl)-6-(1H-1,2,4-triazol-3-yl)-1H-imidazo[4,5-c]pyridin-1-yl)cyclohexyl)-4-methoxypicolinamide] belongs less than 100 nM; to `O=C(N[C@H]1CCC[C@@H](n2c(-c3ccccc3OC(F)F)nc3cnc(-c4nc[nH]n4)cc32)C1)c1cc(Cl)ccc1OC(F)F` [compound 51], less than 100 nM; to `O=C(N[C@H]1CCC[C@@H](n2c(CCC3CCOC3)nc3cnc(-c4nc[nH]n4)cc32)C1)c1cc(Cl)ccn1` (stereo partly drawn) [Example 94, 4-chloro-N-((1S,3R)-3-(2-(2-(tetrahydrofuran-3-yl)ethyl)-6-(1H-1,2,4-triazol-3-yl)-1H-imidazo[4,5-c]pyridin-1-yl)cyclohexyl)picolinamide], greater than 1000 nM.
With `O=C(N[C@H]1CCC[C@@H](n2c(-c3ccccc3F)nc3cnc(-c4nc[nH]n4)cc32)C1)c1cc(Cl)cc[n+]1[O-]` [Example 67, 4-chloro-2-(((1S,3R)-3-(2-(2-fluorophenyl)-6-(1H-1,2,4-triazol-3-yl)-1H-imidazo[4,5-c]pyridin-1-yl)cyclohexyl)carbamoyl)pyridine 1-oxide] the figure was less than 100 nM; with `CN1C[C@H](NC(=O)c2cc(Cl)ccn2)C[C@H](n2c(-c3ccccc3OCCO)nc3cnc(-c4ncco4)cc32)C1` [Example 161, 4-chloro-N-((3R,5S)-5-(2-(2-(2-hydroxyethoxy)phenyl)-6-(oxazol-2-yl)-1H-imidazo[4,5-c]pyridin-1-yl)-1-methylpiperidin-3-yl)picolinamide], less than 100 nM; with `Cc1coc(-c2cc3c(cn2)nc(-c2ccccc2F)n3[C@@H]2CCC[C@H](N3Cc4ccc(F)cc4C3=O)[C@H]2O)n1` [Example 193, 6-fluoro-2-((1S,2S,3R)-3-(2-(2-fluorophenyl)-6-(4-methyloxazol-2-yl)-1H-imidazo[4,5-c]pyridin-1-yl)-2-hydroxycyclohexyl)isoindolin-1-one], less than 100 nM.
In turn, `CN1C[C@@H](NC(=O)c2cc(Cl)ccn2)C[C@@H](n2c(-c3ccccc3OCCO)nc3cnc(-n4nccn4)cc32)C1` [Example 156, 4-chloro-N-((3S,5R)-5-(2-(2-(2-hydroxyethoxy)phenyl)-6-(2H-1,2,3-triazol-2-yl)-1H-imidazo[4,5-c]pyridin-1-yl)-1-methylpiperidin-3-yl)picolinamide] yielded a 50% inhibitory concentration (IC50) greater than 1000 nM.
`CC(C)COc1ccc(Cl)cc1C(=O)N[C@H]1CCC[C@@H](n2c(-c3ncccc3F)nc3cnc(-c4nc[nH]n4)cc32)C1` [Example 48, 5-chloro-N-((1S,3R)-3-(2-(3-fluoropyridin-2-yl)-6-(1H-1,2,4-triazol-3-yl)-1H-imidazo[4,5-c]pyridin-1-yl)cyclohexyl)-2-isobutoxybenzamide]: the IC50 is less than 100 nM.
With `NC1CC(N2Cc3ccc(F)cc3C2=O)CC(n2c(-c3ccccc3F)nc3cnc(-c4nc[nH]n4)cc32)C1` (stereo not drawn) [Example 196, 2-(3-amino-5-(2-(2-fluorophenyl)-6-(1H-1,2,4-triazol-3-yl)-1H-imidazo[4,5-c]pyridin-1-yl)cyclohexyl)-6-fluoroisoindolin-1-one] the figure was less than 100 nM; with `CN1C[C@H](N2Cc3ccc(F)cc3C2=O)C[C@H](n2c(-c3ccccc3OCCO)nc3cnc(-c4nc[nH]n4)cc32)C1` [Example 197, 6-fluoro-2-((3R,5S)-5-(2-(2-(2-hydroxyethoxy)phenyl)-6-(1H-1,2,4-triazol-3-yl)-1H-imidazo[4,5-c]pyridin-1-yl)-1-methylpiperidin-3-yl)isoindolin-1-one], less than 100 nM.
In turn, `COc1ccnc(C(=O)N[C@H]2CCC[C@@H](n3c(-c4ncccc4OC(F)F)nc4cnc(-c5nc[nH]n5)cc43)C2)c1` [compound 64] gave an IC50 of less than 100 nM.
